Test results from ChEMBL document CHEMBL2346627, “Synthesis and cytotoxicity evaluation of oleanolic acid derivatives” (Bioorg Med Chem Lett, 2013).
Active and inactive are the calls of the source. The rule behind the calls is not given here.

Legend:
PC-3 [1] = experiment: Ratio of oleanolic acid IC50 to compound IC50 for human PC3 cells; format: functional
BGC-823 = experiment: Cytotoxicity against human BGC823 cells by MTT assay; format: functional, cell-based
A549 = experiment: Cytotoxicity against human A549 cells by MTT assay; format: functional, cell-based
MCF7 [2] = experiment: Cytotoxicity against human MCF7 cells by MTT assay; format: functional, cell-based
PC-3 [3] = experiment: Cytotoxicity against human PC3 cells by MTT assay; format: functional, cell-based
PC-3 [4] = experiment: Ratio of adriamycin IC50 to compound IC50 for human PC3 cells; format: functional
MCF7 [5] = experiment: Ratio of oleanolic acid IC50 to compound IC50 for human MCF7 cells; format: functional
HepG2 = experiment: Cytotoxicity against human HepG2 cells; format: functional, cell-based

Structure (SMILES) | Ratio IC50 (PC-3 [1]) | IC50 (BGC-823) [µM] | IC50 (A549) [µM] | IC50 (MCF7 [2]) [µM] | IC50 (PC-3 [3]) [µM] | Ratio IC50 (PC-3 [4]) | Ratio IC50 (MCF7 [5]) | IC50 (HepG2) [µM] | inhibition (MCF7 [2])
CC1(C)CC[C@]2(C(=O)O)CC[C@]3(C)C(=CC[C@@H]4[C@@]5(C)CC[C@H](OC(=O)CCC(=O)NCCS(=O)(=O)O)C(C)(C)[C@@H]5CC[C@]43C)[C@@H]2C1 | 17 | 7.32 | 1.31 | 5.19 | 0.83 | – | – | – | –
CC1(C)CC[C@]2(C(=O)OCC(=O)O)CC[C@]3(C)C(=CC[C@@H]4[C@@]5(C)CC[C@H](OC(=O)CCC(=O)O)C(C)(C)[C@@H]5CC[C@]43C)[C@@H]2C1 | – | 13.4 | 11.9 | 805 | 7.72 | – | – | – | –
CC1(C)CC[C@]2(C(=O)O)CC[C@]3(C)C(=CC[C@@H]4[C@@]5(C)CC[C@H](OC(=O)CCN6CCOCC6)C(C)(C)[C@@H]5CC[C@]43C)[C@@H]2C1 | – | 81.9 | 728 | 718 | 6.38 | – | – | – | –
CC1(C)CC[C@]2(C(=O)O)CC[C@]3(C)C(=CC[C@@H]4[C@@]5(C)CC[C@H](OC(=O)C[C@H](O)C(=O)O)C(C)(C)[C@@H]5CC[C@]43C)[C@@H]2C1 | 17 | 4.18 | 0.71 | 16.2 | 0.39 | 1.7 | – | – | –
CC1(C)CC[C@]2(C(=O)O)CC[C@]3(C)C(=CC[C@@H]4[C@@]5(C)CC[C@H](OC(=O)CCN6CCCC6)C(C)(C)[C@@H]5CC[C@]43C)[C@@H]2C1 | – | 27.2 | 6.12 | 1.98 | 5.45 | – | 17 | – | –
CC1(C)CC[C@]2(C(=O)O)CC[C@]3(C)C(=CC[C@@H]4[C@@]5(C)CC[C@H](OC(=O)CCC(=O)O)C(C)(C)[C@@H]5CC[C@]43C)[C@@H]2C1 [OLEANOLIC ACID 3-O-SUCCINATE] | – | 5.59 | 6.57 | 60.7 | 7.11 | – | – | – | –
CC1(C)CC[C@]2(C(=O)OCC(=O)O)CC[C@]3(C)C(=CC[C@@H]4[C@@]5(C)CC[C@H](OC(=O)CCC(=O)NCCS(=O)(=O)O)C(C)(C)[C@@H]5CC[C@]43C)[C@@H]2C1 | – | 84.5 | 268 | 51.7 | 10.4 | – | – | – | –
CC1(C)CC[C@]2(C(=O)O)CC[C@]3(C)C(=CC[C@@H]4[C@@]5(C)CC[C@H](OC(=O)CN6CCCC6)C(C)(C)[C@@H]5CC[C@]43C)[C@@H]2C1 | – | 87.2 | 8.53 | 12.9 | 28.3 | – | – | – | –
CC1(C)CC[C@]2(C(=O)O)CC[C@]3(C)C(=CC[C@@H]4[C@@]5(C)CC[C@H](OC(=O)Cn6ccnc6)C(C)(C)[C@@H]5CC[C@]43C)[C@@H]2C1 | – | 16.3 | 16.9 | 894 | 57.5 | – | – | – | –
COc1cccc2c1C(=O)c1c(O)c3c(c(O)c1C2=O)C[C@@](O)(C(=O)CO)C[C@@H]3O[C@H]1C[C@H](N)[C@H](O)[C@H](C)O1 [DOXORUBICIN] | – | – | – | 1.65 | – | – | – | – | –
COC(=O)[C@]12CCC(C)(C)C[C@@H]1C1=CC[C@@H]3[C@@]4(C)CC[C@H](N)C(C)(C)[C@@H]4CC[C@@]3(C)[C@]1(C)CC2 | – | – | – | – | – | – | – | 4 | –
CC1(C)CC[C@]2(C(=O)OCC(=O)O)CC[C@]3(C)C(=CC[C@@H]4[C@@]5(C)CC[C@H](OC(=O)C[C@H](O)C(=O)O)C(C)(C)[C@@H]5CC[C@]43C)[C@@H]2C1 | – | 9.36 | 19.3 | 35.1 | 8.07 | – | – | – | –
CC1(C)CC[C@]2(C(=O)O)CC[C@]3(C)C(=CC[C@@H]4[C@@]5(C)CC[C@H](O)C(C)(C)[C@@H]5CC[C@]43C)[C@@H]2C1 [OLEANOLIC_ACID] | – | 2.59 | 0.39 | 35.4 | 6.51 | – | – | – | –
CC1(C)CC[C@]2(C(=O)O)CC[C@]3(C)C(=CC[C@@H]4[C@@]5(C)CC[C@H](OC(=O)CCn6ccnc6)C(C)(C)[C@@H]5CC[C@]43C)[C@@H]2C1 | – | 76.3 | 0.22 | – | 50.5 | – | – | – | inactive
CC1(C)CC[C@]2(C(=O)O)CC[C@]3(C)C(=CC[C@@H]4[C@@]5(C)CC[C@H](OC(=O)CN6CCOCC6)C(C)(C)[C@@H]5CC[C@]43C)[C@@H]2C1 | – | 24.5 | 8.27 | 14.9 | 6.29 | – | – | – | –
